Test results published in patent publication US5739163A, “Aromatic compounds containing basic and acidic termini useful as fibrinogen receptor antagonists” (The DuPont Merck Pharmaceutical Company, priority 1996, dated 1998).
Counter-ions that a name gives are not always drawn.

tested on: agonist-induced platelet aggregation; assay: Platelet Aggregation Assay; format: cell-based; settings: Homo sapiens, Platelet, human platelet-rich plasma, class symbols
Procedure: Platelet Aggregation Assay: Venous blood was obtained from the arm of a healthy human donor who was drug-free and aspirin-free for at least two weeks prior to blood collection. Blood was collected into 10 mL citrated Vacutainer tubes. The blood was centrifuged for 15 minutes at 150×g at room temperature, and platelet-rich plasma (PRP) was removed. The remaining blood was centrifuged for 15 minutes at 1500×g at room temperature, and platelet-poor plasma (PPP) was removed. […] The results are expressed as % inhibition of agonist-induced platelet aggregation. For the IC50 evaluation, the test compounds were added at various concentrations prior to the activation of the platelets.

Row | IC50 [µM] | Structure (SMILES)
1 | 51 to 100 | NCCOc1cccc(C(=O)/C=C/c2ccc(OCC(=O)O)c(C(=O)OCc3ccccc3)c2)c1 [Example 28, (E)-Benzyl 5-[3-((3-(2-aminoethoxy)phenyl))-3-oxo-1-propenyl]-2-(carboxymethoxy)benzoate.trifluoroacetate]
2 | < 10 | CCOc1cc(/C=C/C(=O)c2cccc(OCCN)c2)ccc1OCC(=O)O [Example 22, (E)-4-[3-((3-(2-Aminoethoxy)phenyl))-3-oxo-1-propenyl]-2-ethoxyphenoxyacetic acid.trifluoroacetate]
3 | 51 to 100 | CCOc1cc(/C=C/C(=O)c2cccc(CCN)c2)ccc1OCC(=O)O [Example 91, (E)-4-[3-((3-(2-Aminoethyl)phenyl))-3-oxo-1-propenyl]-2-ethoxyphenoxyaceticacid trifluoroacetate]
4 | < 10 | COc1cc(/C=C/C(=O)c2cccc(OCCN)c2)ccc1OCC(=O)O [Example 23]
5 | 10 to 50 | CNCCOc1cccc(C(=O)/C=C/c2ccc(OCC(=O)O)c(OC)c2)c1 [Example 121, (E)-4-[[3-[3-((2-(methylamino)ethoxy))-phenyl]-3-oxo-1-propenyl]]-2-methoxyphenoxyacetic acid.trifluoroacetate]
6 | 51 to 100 | NCCOc1cccc(C(=O)/C=C/c2ccc(OCC(=O)O)c(-c3ccccc3)c2)c1 [Example 75c]
7 | 51 to 100 | CCOC(=O)COC(=O)c1cc(/C=C/C(=O)c2cccc(OCCN)c2)ccc1OCC(=O)O [Example 27, (E)-(2-Ethoxy-2-oxoethyl) 5-[3-((3-(2-amino-ethoxy)phenyl))-3-oxo-1-propenyl]-2-(carboxymethoxy)-benzoate.trifluoroacetate]
8 | 10 to 50 | COC(=O)c1cc(/C=C/C(=O)c2cccc(OCCN)c2)ccc1OCC(=O)O [Example 30]
9 | < 10 | NCCOc1cccc(C(=O)/C=C/c2ccc(OCC(=O)O)c(C(=O)OCC(=O)O)c2)c1 [Example 25, (E)-(Carboxymethyl) 5-[3-((3-(2aminoethoxy)-phenyl))-3-oxo-1-propenyl]-2-(carboxymethoxy)benzoate.trifluoroacetate]
10 | 10 to 50 | CCOC(=O)c1cc(/C=C/C(=O)c2cccc(OCCN)c2)ccc1OCC(=O)O [Example 2, (E)-Ethyl 5-[3-((3-(2-aminoethoxy)phenyl))-3-oxo-1-propenyl]-2-(carboxymethoxy)benzoate.trifluoroacetate]
11 | 10 to 50 | CCCCOC(=O)c1cc(/C=C/C(=O)c2cccc(OCCN)c2)ccc1OCC(=O)O [Example 24, (E)-n-Butyl 5-[3-((3-(2-aminoethoxy)-phenyl))-3-oxo-1-propenyl]-2-(carboxymethoxy)benzoate-trifluoroacetate]
12 | < 10 | NCCOc1cccc(C(=O)/C=C/c2ccc(OCC(=O)O)c([N+](=O)[O-])c2)c1 [Example 26, (E)-4-[3-((3-(2-Aminoethoxy)phenyl))-3-oxo-1-propenyl]-2-nitrophenoxyacetic acid.trifluoroacetate]
13 | 10 to 50 | NCCOc1cccc(C(=O)/C=C/c2ccc(OCC(=O)O)c(OCC(=O)O)c2)c1 [Example 29, (E)-4-[3-((3-(2-Aminoethoxy)phenyl))-3-oxo-1-propenyl]benzene-1,2-bis(oxyacetic acid).trifluoroacetate]
14 | 10 to 50 | COc1cc(OCC(=O)O)ccc1/C=C/C(=O)c1cccc(OCCN)c1 [Example 65, (E)-4-[3-((3-(2-Aminoethoxy)phenyl))-3-oxo-1-propenyl]-3-methoxyphenoxyacetic acid.hydrochloride]

Second part, the molecule before the results:

Row | Structure (SMILES) | IC50 [µM]
15 | COc1cc(/C=C/C(=O)c2cccc(CNC(=N)N)c2)ccc1OCC(=O)O [Example 112, (E)-4-[3-((3-(guanidinylmethyl)phenyl))-3-oxo-1-propenyl]-2-methoxyphenoxyacetic acid.trifluoroacetate] | 10 to 50
16 | NCc1cccc(C(=O)/C=C/c2ccc(OCC(=O)O)c(OCC(=O)O)c2)c1 [Example 76] | 51 to 100
17 | C=CCOc1ccc(OCCN)cc1C(=O)/C=C/c1ccc(OCC(=O)O)c(C(=O)OCC(=O)O)c1 [Example 44, (E)-(Carboxymethyl) 5-((3-((2-(1-prop-2-enyloxy)-5-(2-aminoethoxy)phenyl))-3-oxo-1-propenyl))-2-(carboxymethoxy)benzoate.trifluoroacetate] | < 10
18 | NCCOc1ccc(OCc2ccccc2)c(C(=O)/C=C/c2ccc(OCC(=O)O)c(C(=O)OCC(=O)O)c2)c1 [Example 43] | < 10
19 | CCOc1cc(OCCN)cc(C(=O)/C=C/c2ccc(OCC(=O)O)cc2)c1 [Example 21, (E)-4-[3-((3-(2-Aminoethoxy)-5-ethoxyphenyl))-3-oxo-1-propenyl]phenoxyacetic acid.trifluoroacetate] | 10 to 50
20 | C=CCOc1ccc(OCCN)cc1C(=O)/C=C/c1ccc(OCC(=O)O)c(C(=O)OCC)c1 [Example 3, (E)-Ethyl 5-[3-((2-(1-prop-2-enyloxy)-5-(2aminoethoxy)phenyl))-3-oxo-1-propenyl]-2-(carboxymethoxy)benzoate.trifluoroacetate] | < 10
21 | COc1cc(/C=C/C(=O)c2cccc(N3CCNCC3)c2)ccc1OCC(=O)O [Example 120] | < 10
22 | CCOC(=O)c1cc(/C=C/C(=O)c2cc(OCC)cc(OCCN)c2)ccc1OCC(=O)O [Example 20, (E)-Ethyl 5-[3-((3-(2-aminoethoxy)-5-ethoxyphenyl))-3-oxo-1-propenyl]-2-(carboxymethoxy)benzoate.trifluoroacetate] | 10 to 50
23 | NCCOc1cccc(C(=O)CCc2ccc(OCC(=O)O)cc2)c1 [Example 126, 4-[3-((3-(2-Aminoethoxy)phenyl))-3-oxo-1-propyl]phenoxyacetic acid.hydrochloride] | 51 to 100

same assay, conditions: Homo sapiens, Platelet, human platelet-rich plasma, numeric bound

Row | IC50 [µM] | Structure (SMILES)
24 | > 100 | COc1ccc(/C=C/C(=O)c2cccc(OCCN)c2)cc1CC(=O)O [Example 252]
25 | > 100 | NCc1cccc(C(=O)/C=C/c2ccc(OCC(=O)O)cc2)c1 [Example 125a]
26 | > 100 | NCCOc1cccc(C(=O)/C=C/c2ccc(OCCC(=O)O)cc2)c1 [Example 242]
27 | > 100 | CN(C)CCOc1cccc(C(=O)/C=C/c2cccc(C(=O)O)c2)c1 [Example 248]
28 | > 100 | COc1cc(C(=O)/C=C/c2cccc(OCCN)c2)ccc1OCC(=O)O [Example 211, (E)-4-[3-((3-(2-aminoethoxy)phenyl))-1-oxo-prop-2-enyl]-2-methoxyphenoxyacetic acid.trifluoroacetate]
29 | > 100 | NCc1cccc(C(=O)/C=C/c2cccc(OCC(=O)O)c2)c1 [Example 244]

More lines, now with the values behind:

Row | Structure (SMILES) | IC50 [µM]
30 | CCOC(=O)c1cc(/C=C/C(=O)c2cccc(C#CCN)c2)ccc1OCC(=O)O [Example 247] | > 100
31 | NCCc1cccc(C(=O)/C=C/c2ccc([N+](=O)[O-])c(OCC(=O)O)c2)c1 [Example 240] | > 100
32 | NCCCCc1ccc(C(=O)/C=C/c2ccc(OCC(=O)O)cc2)cc1 [Example 241] | > 100
33 | NCCc1cccc(C(=O)/C=C/c2ccc(OCC(=O)O)c([N+](=O)[O-])c2)c1 [Example 93] | > 100
34 | CCOC(=O)c1cc(/C=C/C(=O)c2ccccc2OCCCN)ccc1OCC(=O)O [Example 251] | > 100
35 | NCCCCc1ccc(C(=O)/C=C/c2ccc(CCC(=O)O)cc2)cc1 [Example 243] | > 100
36 | NCc1ccc(C(=O)/C=C/c2ccc(CCC(=O)O)cc2)cc1 [Example 245] | > 100
37 | C=CCc1cc(/C=C/C(=O)c2cccc(OCCN)c2)cc(C(=O)OC)c1OCC(=O)O [Example 75b] | > 100
38 | NCc1ccc(C(=O)/C=C/c2ccc(OCC(=O)O)c([N+](=O)[O-])c2)cc1 [Example 250] | > 100

same assay, conditions: human platelet-rich plasma, 100 μM

Row | Structure (SMILES) | inhibition at 100 µM [%]
39 | COc1ccc(/C=C/C(=O)c2cccc(OCCN)c2)cc1CC(=O)O [Example 252] | 38
40 | NCCc1cccc(C(=O)/C=C/c2ccc(OCC(=O)O)c([N+](=O)[O-])c2)c1 [Example 93] | 21
41 | CCOC(=O)c1cc(/C=C/C(=O)c2ccccc2OCCCN)ccc1OCC(=O)O [Example 251] | 18
42 | CN(C)CCOc1cccc(C(=O)/C=C/c2cccc(C(=O)O)c2)c1 [Example 248] | 13
43 | NCc1ccc(C(=O)/C=C/c2ccc(CCC(=O)O)cc2)cc1 [Example 245] | 19

same assay, conditions: human platelet-rich plasma, class symbols

Row | IC50 [µM] | Structure (SMILES)
44 | 10 to 50 | NCCOc1cccc(C(=O)/C=C/c2ccc(OCC(=O)O)cc2)c1 [Example 1, (E)-4-[3-((3-(2-Aminoethoxy)phenyl))-3-oxo-1-propenyl]phenoxyacetic acid.hydrochloride]
45 | 51 to 100 | NCCOc1cccc(C(=O)/C=C/c2ccc(OCC(=O)O)cc2)c1 [Example 75a]

Row | Structure (SMILES) | IC50 [µM]
46 | CCOC(=O)c1cc(/C=C/C(=O)c2cccc(CC(C)N)c2)ccc1OCC(=O)O (stereo not shown) [Example 101, (E)-Ethyl 5-[3-((3-(2-aminopropyl)phenyl))-3-oxo-1-propenyl]-2(carboxymethoxy)benzoate.trifluoroacetate] | 10 to 50
